Read-outs that look alike come from different tables or passages of the source.

Consider one compound from patent US11572590B2, “Methods for evaluating tumor cell spheroids using 3D microfluidic cell culture device” (Dana-Farber Cancer Institute, Inc., priority 2017, dated 2023).

Holding throughout (experiment): SelectScreen Kinase Profiling, single point inhibition and IC50 for off-target kinases
Holding throughout (type): biochemical

Experiment [1] concerns the target off-target kinases (Homo sapiens, UniProt Q5VT25). Conditions: CDC42 BPA (MRCKA), ZLYTE, ATP Km app.
The target of experiment [2] is off-target kinases (Homo sapiens, UniProt P27448). The following applies: MARK3, ATP Km app, ZLYTE.
The target of experiment [3] is T1, off-target kinases (Homo sapiens, UniProt Q8TD08).
T1 sequence (Q8TD08 1-544): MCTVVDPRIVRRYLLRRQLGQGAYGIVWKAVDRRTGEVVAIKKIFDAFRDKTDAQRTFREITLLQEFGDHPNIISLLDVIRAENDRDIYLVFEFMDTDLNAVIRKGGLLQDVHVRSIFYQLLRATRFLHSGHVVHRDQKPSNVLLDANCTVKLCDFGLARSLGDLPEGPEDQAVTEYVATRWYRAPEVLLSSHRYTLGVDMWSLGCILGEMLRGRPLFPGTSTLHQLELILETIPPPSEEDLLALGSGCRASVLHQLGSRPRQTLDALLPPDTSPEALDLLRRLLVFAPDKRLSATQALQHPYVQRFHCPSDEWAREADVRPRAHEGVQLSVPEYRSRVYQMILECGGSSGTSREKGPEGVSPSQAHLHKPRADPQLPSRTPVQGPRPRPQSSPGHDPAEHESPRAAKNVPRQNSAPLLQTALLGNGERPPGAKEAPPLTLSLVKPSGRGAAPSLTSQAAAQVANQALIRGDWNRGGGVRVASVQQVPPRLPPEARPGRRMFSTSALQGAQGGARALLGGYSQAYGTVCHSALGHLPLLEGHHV
The following applies: MAPK15 (ERK7), LanthaScreen Binding. For orientation: Time-resolved FRET reads energy transfer from a long-lived donor to a nearby acceptor.

In experiment [4] the target is off-target kinases (Homo sapiens, UniProt Q13705). Conditions: ACVR2B, LanthaScreen Binding.
In experiment [5] the target is T2, off-target kinases (Homo sapiens, UniProt Q9NRA0).
T2 sequence (Q9NRA0 1-654): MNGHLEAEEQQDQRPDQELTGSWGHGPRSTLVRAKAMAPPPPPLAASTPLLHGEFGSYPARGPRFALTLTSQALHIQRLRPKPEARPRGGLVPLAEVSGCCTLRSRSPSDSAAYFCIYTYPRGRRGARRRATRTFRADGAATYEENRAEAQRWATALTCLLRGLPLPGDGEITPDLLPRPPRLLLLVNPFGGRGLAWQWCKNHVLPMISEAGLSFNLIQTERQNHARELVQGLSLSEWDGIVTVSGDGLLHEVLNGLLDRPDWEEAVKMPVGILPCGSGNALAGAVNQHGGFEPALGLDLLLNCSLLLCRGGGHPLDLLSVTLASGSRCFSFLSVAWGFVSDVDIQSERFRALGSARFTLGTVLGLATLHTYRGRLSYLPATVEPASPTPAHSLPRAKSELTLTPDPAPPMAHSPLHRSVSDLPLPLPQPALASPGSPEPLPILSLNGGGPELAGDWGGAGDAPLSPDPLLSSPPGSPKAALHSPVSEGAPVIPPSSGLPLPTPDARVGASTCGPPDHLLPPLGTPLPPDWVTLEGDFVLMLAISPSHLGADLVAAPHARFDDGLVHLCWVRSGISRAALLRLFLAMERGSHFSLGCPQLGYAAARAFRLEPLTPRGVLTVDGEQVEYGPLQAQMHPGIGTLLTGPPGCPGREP
The following applies: SPHK2; Cmpd1 1000 μM; ATP 10; Adapta.

Experiment [6] addresses off-target kinases (Homo sapiens, UniProt P19525). Conditions: EIF2AK2 (PKR), LanthaScreen Binding.
Experiment [7] addresses off-target kinases (Homo sapiens, UniProt P00519). Conditions: ABL1, ATP Km app, ZLYTE.

Chain of off-target kinases (Homo sapiens, UniProt Q5VT25) (Q5VT25 whole entry): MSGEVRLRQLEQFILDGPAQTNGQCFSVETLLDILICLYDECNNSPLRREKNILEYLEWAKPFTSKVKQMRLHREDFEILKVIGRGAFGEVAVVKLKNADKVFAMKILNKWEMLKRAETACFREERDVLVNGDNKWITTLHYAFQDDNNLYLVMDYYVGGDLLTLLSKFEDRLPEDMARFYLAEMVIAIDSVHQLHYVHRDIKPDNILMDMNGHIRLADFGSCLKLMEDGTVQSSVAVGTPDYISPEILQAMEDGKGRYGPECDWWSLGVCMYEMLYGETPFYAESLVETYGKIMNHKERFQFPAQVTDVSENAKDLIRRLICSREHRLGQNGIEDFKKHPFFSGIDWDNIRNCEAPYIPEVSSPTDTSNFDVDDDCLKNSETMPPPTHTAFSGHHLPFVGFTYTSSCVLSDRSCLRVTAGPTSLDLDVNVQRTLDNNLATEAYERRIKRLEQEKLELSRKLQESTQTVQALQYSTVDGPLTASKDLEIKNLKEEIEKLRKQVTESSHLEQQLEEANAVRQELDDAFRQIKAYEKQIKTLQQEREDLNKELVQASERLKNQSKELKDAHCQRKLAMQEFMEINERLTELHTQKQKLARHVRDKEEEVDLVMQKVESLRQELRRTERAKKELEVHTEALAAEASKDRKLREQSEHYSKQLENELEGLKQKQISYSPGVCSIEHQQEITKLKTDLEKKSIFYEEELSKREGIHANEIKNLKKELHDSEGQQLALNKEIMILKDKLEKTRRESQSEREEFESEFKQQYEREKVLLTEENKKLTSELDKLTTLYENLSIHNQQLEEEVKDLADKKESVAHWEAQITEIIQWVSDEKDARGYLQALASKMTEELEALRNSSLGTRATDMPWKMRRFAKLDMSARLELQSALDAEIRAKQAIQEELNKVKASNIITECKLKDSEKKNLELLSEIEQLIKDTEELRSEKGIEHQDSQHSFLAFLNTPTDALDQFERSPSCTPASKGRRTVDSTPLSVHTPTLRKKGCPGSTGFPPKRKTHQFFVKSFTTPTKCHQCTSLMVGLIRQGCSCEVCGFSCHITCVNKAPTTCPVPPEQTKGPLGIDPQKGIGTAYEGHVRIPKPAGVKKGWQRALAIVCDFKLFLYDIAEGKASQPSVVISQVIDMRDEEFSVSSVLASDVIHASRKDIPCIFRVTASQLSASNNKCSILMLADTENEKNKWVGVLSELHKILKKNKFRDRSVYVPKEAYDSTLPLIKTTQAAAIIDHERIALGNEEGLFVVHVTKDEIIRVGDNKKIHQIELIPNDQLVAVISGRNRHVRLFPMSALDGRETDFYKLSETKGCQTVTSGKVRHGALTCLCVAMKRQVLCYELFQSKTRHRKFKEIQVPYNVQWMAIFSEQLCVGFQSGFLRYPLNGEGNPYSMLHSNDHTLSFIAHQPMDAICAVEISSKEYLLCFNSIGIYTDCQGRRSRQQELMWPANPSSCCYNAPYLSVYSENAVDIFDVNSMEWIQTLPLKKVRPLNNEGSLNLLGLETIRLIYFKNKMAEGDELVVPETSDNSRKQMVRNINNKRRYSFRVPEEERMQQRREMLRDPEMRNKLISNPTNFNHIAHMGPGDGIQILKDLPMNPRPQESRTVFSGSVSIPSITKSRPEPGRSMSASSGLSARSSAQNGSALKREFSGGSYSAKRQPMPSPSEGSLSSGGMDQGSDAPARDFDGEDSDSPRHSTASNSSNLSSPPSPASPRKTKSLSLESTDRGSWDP
Chain of off-target kinases (Homo sapiens, UniProt P27448) (P27448 whole entry): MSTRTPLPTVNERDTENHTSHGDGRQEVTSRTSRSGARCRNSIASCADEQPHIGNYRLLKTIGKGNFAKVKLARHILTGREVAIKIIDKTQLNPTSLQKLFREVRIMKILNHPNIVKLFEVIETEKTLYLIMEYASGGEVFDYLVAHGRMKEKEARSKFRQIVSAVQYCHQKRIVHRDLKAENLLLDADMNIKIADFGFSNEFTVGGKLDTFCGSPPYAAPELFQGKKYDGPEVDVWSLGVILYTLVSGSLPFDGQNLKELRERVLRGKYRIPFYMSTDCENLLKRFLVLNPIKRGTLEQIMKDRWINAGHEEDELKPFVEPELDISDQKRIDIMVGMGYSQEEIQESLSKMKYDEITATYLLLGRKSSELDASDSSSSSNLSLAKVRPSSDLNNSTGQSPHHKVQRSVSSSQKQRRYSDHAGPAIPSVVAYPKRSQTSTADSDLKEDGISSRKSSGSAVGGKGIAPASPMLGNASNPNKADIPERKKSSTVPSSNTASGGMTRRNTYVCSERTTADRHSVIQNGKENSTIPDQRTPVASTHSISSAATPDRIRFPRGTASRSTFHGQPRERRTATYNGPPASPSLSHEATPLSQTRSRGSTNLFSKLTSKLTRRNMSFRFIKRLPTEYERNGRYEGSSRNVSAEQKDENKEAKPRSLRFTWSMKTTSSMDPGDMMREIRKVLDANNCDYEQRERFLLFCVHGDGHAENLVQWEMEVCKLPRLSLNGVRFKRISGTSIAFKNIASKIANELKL
Chain of off-target kinases (Homo sapiens, UniProt Q13705) (Q13705 19-512): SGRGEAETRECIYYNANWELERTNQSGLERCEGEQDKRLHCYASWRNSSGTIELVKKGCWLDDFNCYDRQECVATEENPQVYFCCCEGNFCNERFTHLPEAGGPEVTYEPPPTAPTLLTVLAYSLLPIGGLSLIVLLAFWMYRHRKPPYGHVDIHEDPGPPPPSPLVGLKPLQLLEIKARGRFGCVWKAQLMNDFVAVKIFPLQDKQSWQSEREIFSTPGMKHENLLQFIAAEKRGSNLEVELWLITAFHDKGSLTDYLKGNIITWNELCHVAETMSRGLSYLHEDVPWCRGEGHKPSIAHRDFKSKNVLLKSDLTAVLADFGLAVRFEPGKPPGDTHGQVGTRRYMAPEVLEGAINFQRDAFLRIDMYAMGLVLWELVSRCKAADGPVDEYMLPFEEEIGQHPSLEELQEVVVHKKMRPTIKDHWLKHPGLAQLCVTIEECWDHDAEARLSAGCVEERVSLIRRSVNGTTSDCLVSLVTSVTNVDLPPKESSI
Chain of off-target kinases (Homo sapiens, UniProt P19525) (P19525 whole entry): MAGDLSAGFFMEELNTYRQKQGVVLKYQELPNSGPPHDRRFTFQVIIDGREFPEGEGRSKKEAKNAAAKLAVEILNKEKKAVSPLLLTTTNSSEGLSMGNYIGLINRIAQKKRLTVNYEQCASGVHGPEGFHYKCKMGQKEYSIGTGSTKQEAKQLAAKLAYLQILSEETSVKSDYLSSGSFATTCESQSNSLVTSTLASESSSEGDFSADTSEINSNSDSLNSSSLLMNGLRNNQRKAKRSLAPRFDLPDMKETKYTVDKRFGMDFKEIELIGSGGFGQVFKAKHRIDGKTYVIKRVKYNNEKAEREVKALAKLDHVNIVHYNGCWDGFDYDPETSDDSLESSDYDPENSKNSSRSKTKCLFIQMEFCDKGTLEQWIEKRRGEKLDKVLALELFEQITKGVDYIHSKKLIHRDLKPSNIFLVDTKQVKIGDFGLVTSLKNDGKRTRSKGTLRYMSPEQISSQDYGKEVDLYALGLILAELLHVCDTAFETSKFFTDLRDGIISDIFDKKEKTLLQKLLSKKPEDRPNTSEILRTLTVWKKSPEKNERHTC
Chain of off-target kinases (Homo sapiens, UniProt P00519) (P00519 whole entry): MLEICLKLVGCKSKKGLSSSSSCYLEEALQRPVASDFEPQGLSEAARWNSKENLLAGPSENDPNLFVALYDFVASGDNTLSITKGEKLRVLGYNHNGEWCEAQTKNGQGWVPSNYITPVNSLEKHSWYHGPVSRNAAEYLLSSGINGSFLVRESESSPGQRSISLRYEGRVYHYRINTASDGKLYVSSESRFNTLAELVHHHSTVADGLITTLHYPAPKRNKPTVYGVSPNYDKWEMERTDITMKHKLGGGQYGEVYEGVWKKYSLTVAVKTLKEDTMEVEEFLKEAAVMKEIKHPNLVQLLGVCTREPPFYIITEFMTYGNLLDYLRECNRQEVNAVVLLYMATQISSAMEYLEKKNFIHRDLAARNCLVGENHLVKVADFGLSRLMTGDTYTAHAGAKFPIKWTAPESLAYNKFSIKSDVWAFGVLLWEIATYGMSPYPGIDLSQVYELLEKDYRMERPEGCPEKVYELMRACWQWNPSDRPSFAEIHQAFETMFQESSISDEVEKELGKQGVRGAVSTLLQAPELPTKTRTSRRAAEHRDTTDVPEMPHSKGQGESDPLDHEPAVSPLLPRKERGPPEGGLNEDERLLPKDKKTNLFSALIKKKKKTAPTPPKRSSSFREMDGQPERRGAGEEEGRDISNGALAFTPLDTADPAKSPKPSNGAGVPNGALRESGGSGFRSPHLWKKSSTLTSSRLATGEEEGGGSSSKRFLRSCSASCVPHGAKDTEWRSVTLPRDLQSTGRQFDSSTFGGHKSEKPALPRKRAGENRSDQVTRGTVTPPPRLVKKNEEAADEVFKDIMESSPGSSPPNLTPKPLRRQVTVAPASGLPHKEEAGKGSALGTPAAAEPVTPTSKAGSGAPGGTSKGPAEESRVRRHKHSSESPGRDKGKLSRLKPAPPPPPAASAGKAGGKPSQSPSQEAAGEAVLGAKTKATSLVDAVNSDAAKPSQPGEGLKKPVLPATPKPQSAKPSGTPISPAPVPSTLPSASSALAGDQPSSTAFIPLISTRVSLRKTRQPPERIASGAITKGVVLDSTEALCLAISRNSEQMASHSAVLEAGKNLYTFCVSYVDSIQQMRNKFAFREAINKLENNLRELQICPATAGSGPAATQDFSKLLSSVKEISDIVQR

`N#Cc1cc(-c2ncnc(Nc3ccc(N4CCN(C5COC5)CC4)cc3)n2)ccc1OC1CCOCC1` [Compound 1, 5-(4-((4-(4-(oxetan-3-yl)piperazin-1-yl)phenyl)amino)-1,3,5-triazin-2-yl)-2-((tetrahydro-2H-pyran-4-yl)oxy)benzonitrile]: the inhibition (as a rule, the share of the control response that was lost under treatment) on off-target kinases [1] (read-out: % Inhibition 1) amounted to 4%; at off-target kinases [1] (read-out: % Inhibition 2), 4%; on off-target kinases [1] (read-out: % Inhibition Avg), 4%; on off-target kinases [2] (read-out: % Inhibition 1) it was 98%; on off-target kinases [2] (read-out: % Inhibition 2), 94%; on off-target kinases [2] (read-out: % Inhibition Avg) it was 96%. In addition, the inhibition came out at 100% on off-target kinases [3] (read-out: % Inhibition 1); 100% at off-target kinases [3] (read-out: % Inhibition 2); 100% at off-target kinases [3] (read-out: % Inhibition Avg); 27% at off-target kinases [4] (read-out: % Inhibition 1); 31% on off-target kinases [4] (read-out: % Inhibition 2); 29% at off-target kinases [4] (read-out: % Inhibition Avg). In addition, the inhibition on off-target kinases [6] (read-out: % Inhibition 1) worked out at 90%; on off-target kinases [6] (read-out: % Inhibition 2), 89%; at off-target kinases [6] (read-out: % Inhibition Avg) it was 89%; on off-target kinases [7] (read-out: % Inhibition 1), 48%; on off-target kinases [7] (read-out: % Inhibition 2) it was 51%; on off-target kinases [7] (read-out: % Inhibition Avg) it was 49%. Moreover, the “% Inhibition 1” value on off-target kinases [5] was −16%. For the same compound, at off-target kinases [5], the “% Inhibition 2” value is −2%. For the same compound, the “% Inhibition Avg” value at off-target kinases [5] is listed as −9%.
